SMILES strings stand for the structures.

The target of one assay is T1, Adenosine receptor A3 (Homo sapiens, UniProt P0DMS8).
T1 sequence (P0DMS8 whole entry): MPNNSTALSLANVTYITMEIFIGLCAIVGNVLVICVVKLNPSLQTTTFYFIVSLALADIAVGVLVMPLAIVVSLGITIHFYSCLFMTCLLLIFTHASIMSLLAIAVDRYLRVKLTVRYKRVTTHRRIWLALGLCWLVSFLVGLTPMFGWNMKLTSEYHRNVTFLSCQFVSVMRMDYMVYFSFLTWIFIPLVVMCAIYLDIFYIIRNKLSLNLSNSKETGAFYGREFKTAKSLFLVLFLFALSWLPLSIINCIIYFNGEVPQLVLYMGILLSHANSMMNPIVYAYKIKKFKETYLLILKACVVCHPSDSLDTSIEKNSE

Assay [1] addresses Neuronal acetylcholine receptor subunit alpha-4 (Homo sapiens, UniProt P43681).
Assay [2] concerns the target Growth hormone secretagogue receptor type 1 (Homo sapiens, UniProt Q92847).
The target in assay [3] is T2, Neuropeptide Y receptor type 1 (Homo sapiens, UniProt P25929).
T2 sequence (P25929 whole entry): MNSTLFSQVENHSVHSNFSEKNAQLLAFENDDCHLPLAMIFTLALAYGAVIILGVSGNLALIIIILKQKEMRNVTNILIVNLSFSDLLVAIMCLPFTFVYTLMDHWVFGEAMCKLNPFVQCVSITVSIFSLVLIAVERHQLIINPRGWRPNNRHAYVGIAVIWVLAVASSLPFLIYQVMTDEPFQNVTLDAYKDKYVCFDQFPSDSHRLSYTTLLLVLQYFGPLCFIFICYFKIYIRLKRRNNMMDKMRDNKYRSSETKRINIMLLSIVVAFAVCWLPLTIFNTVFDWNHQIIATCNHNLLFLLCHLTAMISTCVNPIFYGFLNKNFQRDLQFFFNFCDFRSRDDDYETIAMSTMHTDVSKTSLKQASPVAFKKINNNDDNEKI
Particulars: read-out: AC50.

Assay [4] has as its target 3',5'-cyclic-AMP phosphodiesterase 4D (Homo sapiens, UniProt Q08499). The assay is classed as functional.
The target of assay [5] is T3, Prostaglandin G/H synthase 1 (Rattus norvegicus, UniProt Q63921).
T3 sequence (Q63921 whole entry): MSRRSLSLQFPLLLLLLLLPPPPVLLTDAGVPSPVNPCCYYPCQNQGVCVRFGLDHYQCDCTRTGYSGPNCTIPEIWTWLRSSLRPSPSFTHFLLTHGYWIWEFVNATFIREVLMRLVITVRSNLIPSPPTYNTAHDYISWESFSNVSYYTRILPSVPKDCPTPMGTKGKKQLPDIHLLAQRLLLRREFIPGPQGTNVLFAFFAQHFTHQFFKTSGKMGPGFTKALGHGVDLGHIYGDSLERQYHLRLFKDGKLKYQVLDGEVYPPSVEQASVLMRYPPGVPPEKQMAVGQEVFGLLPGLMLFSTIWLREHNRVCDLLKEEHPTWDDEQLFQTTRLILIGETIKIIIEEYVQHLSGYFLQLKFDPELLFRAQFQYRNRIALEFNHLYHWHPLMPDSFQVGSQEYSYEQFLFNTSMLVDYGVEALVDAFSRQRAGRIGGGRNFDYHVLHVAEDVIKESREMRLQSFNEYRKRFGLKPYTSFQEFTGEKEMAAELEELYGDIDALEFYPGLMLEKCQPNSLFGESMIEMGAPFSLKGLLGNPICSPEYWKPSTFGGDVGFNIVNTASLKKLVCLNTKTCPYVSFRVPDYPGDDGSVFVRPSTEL
The assay is classed as functional.

Assay [6] deals with T4, Equilibrative nucleoside transporter 1 (Homo sapiens, UniProt Q99808).
T4 sequence (Q99808 whole entry): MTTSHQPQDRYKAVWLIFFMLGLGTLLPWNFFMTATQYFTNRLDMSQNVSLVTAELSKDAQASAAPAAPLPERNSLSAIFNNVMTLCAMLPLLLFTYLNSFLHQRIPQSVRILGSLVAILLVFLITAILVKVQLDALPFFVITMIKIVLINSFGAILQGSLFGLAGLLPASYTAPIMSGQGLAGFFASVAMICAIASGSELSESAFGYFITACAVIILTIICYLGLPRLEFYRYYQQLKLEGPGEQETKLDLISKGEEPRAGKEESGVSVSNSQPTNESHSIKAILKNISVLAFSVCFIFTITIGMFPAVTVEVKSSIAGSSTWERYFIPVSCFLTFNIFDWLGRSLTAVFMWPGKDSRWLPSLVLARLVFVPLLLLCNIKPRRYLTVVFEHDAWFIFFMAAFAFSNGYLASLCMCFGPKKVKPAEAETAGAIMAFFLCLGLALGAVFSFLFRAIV

In assay [7] the target is T5, Amine oxidase [flavin-containing] A (Homo sapiens, UniProt P21397).
T5 sequence (P21397 whole entry): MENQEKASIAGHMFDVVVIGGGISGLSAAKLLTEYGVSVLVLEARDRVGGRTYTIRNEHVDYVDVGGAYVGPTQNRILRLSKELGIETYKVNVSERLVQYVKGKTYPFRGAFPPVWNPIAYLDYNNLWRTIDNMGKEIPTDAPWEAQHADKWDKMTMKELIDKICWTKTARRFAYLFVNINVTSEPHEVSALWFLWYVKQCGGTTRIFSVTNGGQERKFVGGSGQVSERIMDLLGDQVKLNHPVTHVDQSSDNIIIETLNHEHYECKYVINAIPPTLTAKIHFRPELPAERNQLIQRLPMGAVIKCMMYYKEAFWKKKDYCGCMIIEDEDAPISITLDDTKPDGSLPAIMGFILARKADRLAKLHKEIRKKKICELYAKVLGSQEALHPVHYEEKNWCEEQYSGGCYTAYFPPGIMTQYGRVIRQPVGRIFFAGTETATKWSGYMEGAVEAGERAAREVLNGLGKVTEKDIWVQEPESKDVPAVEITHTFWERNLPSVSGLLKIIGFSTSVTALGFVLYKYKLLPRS
Format: functional.
Further: assay procedure not described here.

Chain of Growth hormone secretagogue receptor type 1 (Q92847 whole entry): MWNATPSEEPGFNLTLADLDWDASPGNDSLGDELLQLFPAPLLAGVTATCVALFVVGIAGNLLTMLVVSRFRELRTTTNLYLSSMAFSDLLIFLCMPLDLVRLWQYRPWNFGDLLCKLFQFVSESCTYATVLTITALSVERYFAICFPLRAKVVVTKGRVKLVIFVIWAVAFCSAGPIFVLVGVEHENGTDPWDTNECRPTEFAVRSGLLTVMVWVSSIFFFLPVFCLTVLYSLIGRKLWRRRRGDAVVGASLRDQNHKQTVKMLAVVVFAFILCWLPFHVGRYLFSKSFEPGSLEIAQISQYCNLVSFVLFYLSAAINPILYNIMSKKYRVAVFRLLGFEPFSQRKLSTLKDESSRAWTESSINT
Chain of 3',5'-cyclic-AMP phosphodiesterase 4D (Q08499 whole entry): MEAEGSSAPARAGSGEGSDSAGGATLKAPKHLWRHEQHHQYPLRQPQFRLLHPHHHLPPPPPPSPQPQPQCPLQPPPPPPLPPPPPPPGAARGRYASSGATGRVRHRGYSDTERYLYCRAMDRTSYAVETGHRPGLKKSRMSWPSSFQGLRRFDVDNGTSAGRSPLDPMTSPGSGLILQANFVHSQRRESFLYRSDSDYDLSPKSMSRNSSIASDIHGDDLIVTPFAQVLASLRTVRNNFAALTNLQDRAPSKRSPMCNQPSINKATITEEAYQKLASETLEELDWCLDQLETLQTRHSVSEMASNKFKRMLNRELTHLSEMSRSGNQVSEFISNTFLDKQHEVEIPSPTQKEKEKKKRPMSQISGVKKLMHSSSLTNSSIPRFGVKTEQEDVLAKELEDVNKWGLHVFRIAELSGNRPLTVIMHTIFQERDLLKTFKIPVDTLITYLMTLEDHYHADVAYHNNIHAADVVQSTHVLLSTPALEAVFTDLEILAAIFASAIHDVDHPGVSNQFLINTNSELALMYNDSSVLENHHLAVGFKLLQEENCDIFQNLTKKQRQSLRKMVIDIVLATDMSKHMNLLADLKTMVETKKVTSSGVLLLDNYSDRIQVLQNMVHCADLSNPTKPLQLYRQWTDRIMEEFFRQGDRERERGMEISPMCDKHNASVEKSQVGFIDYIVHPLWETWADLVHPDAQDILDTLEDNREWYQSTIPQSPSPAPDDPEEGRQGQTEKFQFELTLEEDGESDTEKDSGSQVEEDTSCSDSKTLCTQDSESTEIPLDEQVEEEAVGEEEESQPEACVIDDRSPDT
Chain of Neuronal acetylcholine receptor subunit alpha-4 (P43681 whole entry): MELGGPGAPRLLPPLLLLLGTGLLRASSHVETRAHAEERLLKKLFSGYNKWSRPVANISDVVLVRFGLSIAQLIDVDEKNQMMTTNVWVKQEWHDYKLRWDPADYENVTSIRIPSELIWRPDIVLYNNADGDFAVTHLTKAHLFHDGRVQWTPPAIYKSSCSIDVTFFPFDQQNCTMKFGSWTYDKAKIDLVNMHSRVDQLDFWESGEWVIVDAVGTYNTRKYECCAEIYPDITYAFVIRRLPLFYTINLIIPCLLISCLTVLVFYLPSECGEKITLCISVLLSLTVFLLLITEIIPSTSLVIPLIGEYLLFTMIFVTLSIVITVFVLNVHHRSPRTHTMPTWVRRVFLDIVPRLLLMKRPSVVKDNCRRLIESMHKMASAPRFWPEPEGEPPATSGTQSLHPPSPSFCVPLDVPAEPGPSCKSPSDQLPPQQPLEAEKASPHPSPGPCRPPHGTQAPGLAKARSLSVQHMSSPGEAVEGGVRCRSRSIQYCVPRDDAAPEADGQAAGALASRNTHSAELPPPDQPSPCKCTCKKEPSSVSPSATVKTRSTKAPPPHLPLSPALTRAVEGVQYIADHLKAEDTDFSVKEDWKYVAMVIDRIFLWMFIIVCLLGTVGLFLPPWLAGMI

Regarding `COc1cc(N)c(Cl)cc1C(=O)NC1CCN(Cc2ccccc2)CC1` [CLEBOPRIDE], the AC50 at Adenosine receptor A3 was > 30 µM; in assay [1] it was 24 µM; in assay [2], > 30 µM; in assay [3] it was > 30 µM; in assay [4], 2.9 µM; in assay [5] it was 14 µM. In addition, the AC50 in assay [6] and in assay [7] was > 30 µM throughout.
Turning to `C[C@]12CC[C@@H]3c4ccc(O)cc4C[C@@H](CCCCCCCCC[S+]([O-])CCCC(F)(F)C(F)(F)F)[C@H]3[C@@H]1CC[C@@H]2O` (stereo not given in full) [FULVESTRANT], the half-maximal activity concentration (AC50) (at Adenosine receptor A3; in assay [1]; in assay [2]; in assay [3]; in assay [4]; in assay [5]) was > 30 µM in each case. For the same compound, the AC50 in assay [6] and in assay [7] was > 30 µM each time.
Consider `CC(C)[C@H](N)C(=O)OCC(CO)OCn1cnc2c(=O)nc(N)[nH]c21` (stereo not given in full) [VALGANCICLOVIR], for which the AC50 (at Adenosine receptor A3; in assay [1]; in assay [2]; in assay [3]; in assay [4]; in assay [5]) was > 30 µM each time. In addition, the AC50 in assay [6] and in assay [7] was > 30 µM throughout.
Turning to `CC1(C)S[C@@H]2[C@H](NC(=O)[C@H](N)c3ccccc3)C(=O)N2[C@H]1C(=O)OCOC(=O)[C@@H]1N2C(=O)C[C@H]2S(=O)(=O)C1(C)C` [SULTAMICILLIN], the half-maximal activity concentration (AC50) (on Adenosine receptor A3; in assay [1]; in assay [2]; in assay [3]; in assay [4]; in assay [5]) was > 30 µM each time. Besides, the AC50 in assay [6] and in assay [7] was > 30 µM in each case.
In the case of `C[C@]12CCC(=O)C(O)=C1CC[C@@H]1[C@@H]2CC[C@]2(C)C(=O)CC[C@@H]12` [FORMESTANE], the concentration at half-maximal activity (AC50) (on Adenosine receptor A3; in assay [1]; in assay [2]; in assay [3]; in assay [4]; in assay [5]) was > 30 µM in each case. Besides, the concentration at half-maximal activity (AC50) in assay [6] and in assay [7] was > 30 µM in each case.
As for `Cc1noc(NS(=O)(=O)c2ccc(N)cc2)c1C` [SULFISOXAZOLE], the AC50 is > 10 µM at Adenosine receptor A3; > 10 µM in assay [1]; > 10 µM in assay [2]; > 10 µM in assay [3]; > 30 µM in assay [4]; > 10 µM in assay [5]. Further, the half-maximal activity concentration (AC50) in assay [6] and in assay [7] was > 10 µM throughout.
Consider `CC(C)NCC(O)c1ccc(O)c(O)c1` (stereo not given) [ISOPROTERENOL], for which the concentration at half-maximal activity (AC50) at Adenosine receptor A3 was 20.3 µM; in assay [1], > 30 µM; in assay [2], > 30 µM; in assay [3], > 30 µM; in assay [4] it was > 30 µM; in assay [5], > 30 µM. The figures for the concentration at half-maximal activity (AC50) in assay [6] and in assay [7] were > 30 µM and > 10 µM, respectively.
For the compound `CCCCC1C(=O)N(c2ccccc2)N(c2ccccc2)C1=O` [PHENYLBUTAZONE], the AC50 on Adenosine receptor A3 was > 30 µM; in assay [1], > 30 µM; in assay [2] it was > 30 µM; in assay [3], > 30 µM; in assay [4], > 30 µM; in assay [5], > 10 µM. Further, the AC50 in assay [6] is > 30 µM; in assay [7], > 10 µM.
Take `OC1(c2ccc(Cl)cc2)c2ccccc2C2=NCCN21` (stereo not given) [MAZINDOL]: the AC50 on Adenosine receptor A3 was 9.6 µM; in assay [1] it was > 30 µM; in assay [2], > 30 µM; in assay [3] it was > 30 µM; in assay [4], > 30 µM; in assay [5], > 30 µM. The half-maximal activity concentration (AC50) in assay [6] and in assay [7] was > 30 µM throughout.
`CCCC(CCC)C(N)=O` [VALPROMIDE]: the half-maximal activity concentration (AC50) was > 30 µM on Adenosine receptor A3; > 10 µM in assay [1]; > 30 µM in assay [2]; > 30 µM in assay [3]; > 30 µM in assay [4]; > 30 µM in assay [5]. In addition, the half-maximal activity concentration (AC50) in assay [6] is > 30 µM; in assay [7], > 10 µM.
Regarding `C/N=C(\NC)NCc1ccccc1` [BETHANIDINE], the AC50 (on Adenosine receptor A3; in assay [1]; in assay [2]; in assay [3]; in assay [4]; in assay [5]) was > 30 µM each time. In addition, the AC50 in assay [6] and in assay [7] was > 30 µM throughout.
Turning to `CC1OC2(CS1)CN1CCC2CC1` (stereo not given) [CEVIMELINE], the AC50 on Adenosine receptor A3 is > 10 µM; in assay [1] it was > 10 µM; in assay [2], > 10 µM; in assay [3], > 10 µM; in assay [4] it was > 30 µM; in assay [5], > 10 µM. In addition, the figures for the half-maximal activity concentration (AC50) in assay [6] and in assay [7] were > 10 µM and > 30 µM, respectively.
With `CCC(=O)O[C@]1(C(=O)SCF)[C@H](C)C[C@H]2[C@@H]3C[C@H](F)C4=CC(=O)C=C[C@]4(C)[C@@]3(F)[C@@H](O)C[C@@]21C` [FLUTICASONE PROPIONATE], the AC50 (on Adenosine receptor A3; in assay [1]; in assay [2]; in assay [3]; in assay [4]; in assay [5]) was > 30 µM throughout. Also, the AC50 in assay [6] and in assay [7] was > 30 µM each time.
`CC(CCc1ccc(O)cc1)NCCc1ccc(O)c(O)c1` (stereo not given) [DOBUTAMINE]: the AC50 was 22.9 µM on Adenosine receptor A3; > 30 µM in assay [1]; > 30 µM in assay [2]; > 30 µM in assay [3]; > 30 µM in assay [4]; 5.31 µM in assay [5]. Also, the half-maximal activity concentration (AC50) in assay [6] and in assay [7] was > 30 µM in each case.
As to `Nc1ncn([C@H]2C[C@H](O)[C@@H](CO)O2)c(=O)n1` [DECITABINE], the AC50 (on Adenosine receptor A3; in assay [1]; in assay [2]; in assay [3]; in assay [4]; in assay [5]) was > 30 µM throughout. The AC50 in assay [6] and in assay [7] was > 30 µM each time.

As usually defined, the AC50 is the concentration at which the activity in the assay is half-maximal.

(Values after ChEMBL document CHEMBL5291721, “A preclinical secondary pharmacology resource illuminates target-adverse drug reaction associations of marketed drugs” (Nat Commun, 2023).)
